# Like-named read-outs stand apart in the source and are kept apart here.
# Key:
# Test in all cases: MIC of compounds alone and combined with antibacterials, broth microdilution (CLSI)
# Type in all cases: cell-based
# [1] = tested on: Klebsiella oxytoca (KOX) isolates; conditions: Klebsiella oxytoca, alone, read-out: MIC
# In short: (§1)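 Broth microdilution in cation-adjusted Mueller-Hinton broth, inoculum 5.10^5 CFU/mL, 16-20 h at 35° C in ambient air, on genotyped isolates. Compound MIC, alone or with an antibacterial, taken visually as lowest concentration preventing growth; antibacterial MIC determined at each compound concentration.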
# [2] = tested on: Serratia marcescens (SMA) isolates; conditions: Serratia marcescens, read-out: MIC
# In short: as §1
# [3] = tested on: Klebsiella pneumoniae (KPN) isolates; conditions: Klebsiella pneumoniae, read-out: MIC
# In short: as §1
# [4] = tested on: Providencia rettgeri (PRE) isolates; conditions: Providencia rettgeri, read-out: MIC
# In short: as §1
# [5] = tested on: Citrobacter freundii (CFR) isolates; conditions: Citrobacter freundii, read-out: MIC
# In short: as §1
structure (smiles),measurement,setting,value
O=C1N2CC(n3cccn3)=CC(C2)N1OC(F)(F)C(=O)[O-].[Li+] (centres unmarked) [AF3],MIC,[1]; KOX UFR21,> 32 µg/mL
same,MIC,[1]; KOX UFR173,16 µg/mL
same,MIC,[1]; KOX UFR223,8 µg/mL
same,MIC,[1]; KOX UFR224,8 µg/mL
same,MIC,"[2]; SMA UFR30, alone",8 µg/mL
same,MIC,"[2]; SMA UFR134, alone",32 µg/mL
same,MIC,"[2]; SMA UFR135, alone",> 32 µg/mL
same,MIC,"[2]; SMA UFR136, alone",> 32 µg/mL
same,MIC,"[2]; SMA UFR137, alone",32 µg/mL
same,MIC,"[2]; SMA UFR138, alone",16 µg/mL
same,MIC,"[2]; SMA UFR139, alone",32 µg/mL
same,MIC,"[2]; SMA UFR141, alone",32 µg/mL
same,MIC,"[2]; SMA UFR142, alone",> 32 µg/mL
same,MIC,"[2]; SMA UFR143, alone",32 µg/mL
same,MIC,"[2]; SMA UFR239, alone",16 µg/mL
same,MIC,"[2]; strain SMA UFR140, compound alone",> 32 µg/mL
same,MIC,"[2]; strain SMA UFR238, compound alone",32 µg/mL
same,MIC,"[3]; BAA1898, KPN BAA-1898, alone",16 µg/mL
same,MIC,"[3]; KPN 6299, alone",16 µg/mL
same,MIC,"[3]; KPN 110376, alone",16 µg/mL
same,MIC,"[3]; KPN 121206, alone",16 µg/mL
same,MIC,"[3]; KPN 131119, alone",8 µg/mL
same,MIC,"[3]; KPN 140513, alone",32 µg/mL
same,MIC,"[3]; KPN 160143, alone",4 µg/mL
same,MIC,"[3]; KPN 190128, alone",32 µg/mL
same,MIC,"[3]; KPN 190270, alone",32 µg/mL
same,MIC,"[3]; KPN 190425, alone",16 µg/mL
same,MIC,"[3]; KPN 190551, alone",4 µg/mL
same,MIC,"[3]; KPN 200047, alone",4 µg/mL
same,MIC,"[3]; KPN 200327, alone",4 µg/mL
same,MIC,"[3]; KPN 260251, alone",16 µg/mL
same,MIC,"[3]; KPN 260252, alone",> 32 µg/mL
same,MIC,"[3]; KPN 260376, alone",4 µg/mL
same,MIC,"[3]; KPN 270077, alone",> 32 µg/mL
same,MIC,"[3]; KPN 700603, alone",32 µg/mL
same,MIC,"[3]; KPN ARA, alone",8 µg/mL
same,MIC,"[3]; KPN LIB, alone",8 µg/mL
same,MIC,"[3]; KPN UFR22_O, alone",16 µg/mL
same,MIC,"[3]; KPN UFR23, alone",8 µg/mL
same,MIC,"[3]; KPN UFR24, alone",32 µg/mL
same,MIC,"[3]; KPN UFR25, alone",8 µg/mL
same,MIC,"[3]; KPN UFR27, alone",16 µg/mL
same,MIC,"[3]; KPN UFR28, alone",16 µg/mL
same,MIC,"[3]; KPN UFR33, alone",> 32 µg/mL
same,MIC,"[3]; KPN UFR42, alone",16 µg/mL
same,MIC,"[3]; KPN UFR43, alone",8 µg/mL
same,MIC,"[3]; KPN UFR46, alone",32 µg/mL
same,MIC,"[3]; KPN UFR53, alone",8 µg/mL
same,MIC,"[3]; KPN UFR65, alone",32 µg/mL
same,MIC,"[3]; KPN UFR66, alone",32 µg/mL
same,MIC,"[3]; KPN UFR67, alone",32 µg/mL
same,MIC,"[3]; KPN UFR68, alone",16 µg/mL
same,MIC,"[3]; KPN UFR76, alone",> 32 µg/mL
same,MIC,"[3]; KPN UFR77, alone",8 µg/mL
same,MIC,"[3]; KPN UFR78, alone",> 32 µg/mL
same,MIC,"[3]; KPN UFR79, alone",32 µg/mL
same,MIC,"[3]; KPN UFR80, alone",32 µg/mL
same,MIC,"[3]; KPN UFR81, alone",16 µg/mL
same,MIC,"[3]; KPN UFR215, alone",32 µg/mL
same,MIC,"[3]; KPN UFR216, alone",4 µg/mL
same,MIC,"[3]; KPN UFR217, alone",8 µg/mL
same,MIC,"[3]; KPN UFR218, alone",4 µg/mL
same,MIC,"[3]; KPN UFR219, alone",16 µg/mL
same,MIC,"[3]; KPN UFR220, alone",4 µg/mL
same,MIC,"[3]; KPN UFR221, alone",4 µg/mL
same,MIC,"[3]; KPN UFR222, alone",8 µg/mL
same,MIC,"[3]; KPN UFR227O, alone",> 32 µg/mL
same,MIC,"[3]; strain KPN 140347, compound alone",32 µg/mL
same,MIC,"[3]; strain KPN UFR162, compound alone",16 µg/mL
same,MIC,"[3]; strain KPN UFR163, compound alone",16 µg/mL
same,MIC,"[3]; strain KPN UFR164, compound alone",16 µg/mL
same,MIC,"[3]; strain KPN UFR165, compound alone",16 µg/mL
same,MIC,"[3]; strain KPN UFR166, compound alone",> 32 µg/mL
same,MIC,"[3]; strain KPN UFR167, compound alone",> 32 µg/mL
same,MIC,"[3]; strain KPN UFR168, compound alone",16 µg/mL
same,MIC,"[3]; strain KPN UFR169, compound alone",> 32 µg/mL
same,MIC,"[3]; strain KPN UFR170, compound alone",16 µg/mL
same,MIC,"[3]; strain KPN UFR171, compound alone",8 µg/mL
same,MIC,"[3]; strain KPN UFR172, compound alone",8 µg/mL
same,MIC,"[3]; strain KPN UFR229O, compound alone",32 µg/mL
same,MIC,"[4]; PRE UFR99, alone",16 µg/mL
same,MIC,"[4]; strain PRE UFR96, compound alone",4 µg/mL
same,MIC,"[4]; strain PRE UFR97, compound alone",32 µg/mL
same,MIC,"[4]; strain PRE UFR236, compound alone",32 µg/mL
same,MIC,"[5]; CFR UFR10, alone",16 µg/mL
same,MIC,"[5]; CFR UFR11, alone",> 32 µg/mL
same,MIC,"[5]; CFR UFR37, alone",8 µg/mL
same,MIC,"[5]; CFR UFR83, alone",> 32 µg/mL
same,MIC,"[5]; CFR UFR146, alone",32 µg/mL
same,MIC,"[5]; CFR UFR248, alone",8 µg/mL
same,MIC,"[5]; CFR UFR249, alone",8 µg/mL
same,MIC,"[5]; CFR UFR250, alone",16 µg/mL
same,MIC,"[5]; strain CFR UFR147, compound alone",4 µg/mL
same,MIC,"[5]; strain CFR UFR148, compound alone",16 µg/mL
same,MIC,"[5]; strain CFR UFR251, compound alone",8 µg/mL
same,MIC,"[5]; strain CFR UFR252, compound alone",32 µg/mL
same,MIC,"[5]; strain CFR UFR253, compound alone",32 µg/mL
same,MIC,"[5]; strain CFR UFR254, compound alone",32 µg/mL
